How the values were obtained:
C57BL/6J mice = experiment: Passive avoidance task; assay type: in vivo, mouse; details: low doses given by themselves; physostigmine 0.025 mg/kg
Procedure: The passive avoidance (PA) task is an associate learning paradigm that is based on Pavlovian fear-conditioning and instrumental conditioning and conducted as previously described in male C57BL/6J mice (n = 7–8/group) from Charles River Laboratories, Sulzfeld, Germany. Vehicle or ACD855 (1, 3 or 10 mg/kg), formulated in 20% DMSO in 0.1 M sodium phosphate buffer pH 8.0, was administered daily (Days 1–4) through s.c. injections (4 mL/kg body weight). ACD856 (0.1, 0.3, 1 or 3 mg/kg) was administered by a single s.c. dose on the training day (Day 4). ACD855, ACD856, ANA-12 (0.5 mg/kg, from Sigma Aldrich, Stockholm, Sweden), physostigmine (0.025 mg/kg, from Sigma Aldrich, Stockholm, Sweden), or vehicle was administered 60 min prior to training, except for when addressing the effects on consolidation, in which case, ACD856 was dosed 5 min after the training session on day 4. Moreover, on the training day (Day 4), scopolamine or the NMDA-antagonist MK-801 (both from Sigma Aldrich, Stockholm, Sweden) at 0.3 mg/kg or vehicle was administered once s.c. 30 min prior to training. No compound was administered on the test day (Day 5), except for when addressing effects on retrieval, in which case, ACD856 was dosed 30 min prior to testing on day 5. Retention latencies and time spent in the bright compartment were determined 24 h after training (Day 5).

Wistar rats = experiment: Novel object recognition; assay type: in vivo, rat; details: 1 mg/kg
Procedure: The novel object recognition model was conducted by Suven Life Sciences Ltd. (Hyderabad, India) using male Wistar rats (n = 12/group). This study was performed in compliance with the requirements and in-house animal care and usage policy of the Institutional Animal Ethics Committee (IAEC). The experiment was conducted over a 5-day period. For the first 3 days, ACD855 or vehicle were administered to the animals. On Day 4, the rats were acclimatized to their respective arenas for 20 min and then returned to their home cages for the administration of ACD855 or vehicle (1 h post habituation phase). On Day 5, the rats were administered vehicle or ACD855 1 h prior to trial, donepezil (1 mg/kg) was injected 30 min prior to trial, and scopolamine (1 mg/kg) was injected 20 min prior to trial. 20 min after scopolamine administration, the rats were subjected to the familiarization phase. The experiment was performed as described by Lueptow. The discriminative index for the drug-treated groups was compared to that of the vehicle group by use of the Kruskal–Wallis test. The discriminative index is the ratio of time spent exploring the novel object divided by the sum of the time spent exploring the novel object and a familiar object in the choice trial.

TrkA = biological target: T1, TrkA (Homo sapiens, UniProt P04629); experiment: TrkA PathHunter cell-based assay (U2OS-TrkA/p75)
T1 construct: host or cells: U2OS (human osteosarcoma), co-expressing p75 and SHC-1 fused to the enzyme acceptor
Procedure: (§1) U2OS cells were maintained subconfluent in EMEM supplemented with 10% FBS and penicillin/streptomycin/hygromycin and G418. One day prior to the experiment, 5000 cells of EMEM supplemented with 0.5% horse serum were seeded in each well of a 384-well white plate. The assay was performed as previously described. Briefly, the TrkA or TrkB cell-based PathHunter® assays use enzyme fragment complementation (EFC) technology for the complementation of two β-galactosidase (β-gal) fragments in order to study protein–protein interactions. Upon activation with ligand, TrkA or TrkB are phosphorylated on several tyrosine residues, including tyrosine 490, leading to an interaction with SHC-1. In the PathHunter® assays, the Trk-receptors are fused to an enzyme donor tag, and SHC-1 is fused to a larger part of β-gal called an enzyme acceptor. The interactions between the recombinant enzyme donor, i.e., the Trk-receptor, with an enzyme acceptor, i.e., SHC-1, leads to an active β-gal enzyme. The functional (complemented) β-gal will hydrolyze a substrate to generate a luminescence signal. The generated luminescence was read using an EnVision plate reader from PerkinElmer, Upplands Väsby, Sweden, or an ID5 plate reader from Molecular Devices, Berkshire, RG41 5TS UK. […] Min- and Max-control wells were included on each plate.
Both Toltrazuril and Ponazuril are registered veterinary products prescribed for parasitic infections in animals. […] The activation of Trk-receptors leads to an intracellular interaction between the Trk-receptor and SHC-1 and thereby to the complementation of β-gal, which will render in a functional enzyme. β-gal will hydrolyze a substrate to generate luminescence, which is proportional to the number of activated receptors.

TrkB = biological target: T2, TrkB (Homo sapiens, UniProt Q16620); experiment: TrkB PathHunter cell-based assay (U2OS-TrkB/p75)
T2 construct: host or cells: U2OS (human osteosarcoma), co-expressing p75 and SHC-1 fused to the enzyme acceptor
Procedure: as §1, with “each plate. A compound was considered a hit if the percent activation was more than 50% and if the value was two standard deviations higher than the mean value of all of the samples on the plate. The average activation of all of samples on 10 different 384-well plates was 31%. […] Due to the risk of adverse events with the systemic administration of TrkA agonists, the screen and the re-screen processes were designed to increase the likelihood of identifying the positive modulators of NGF-signaling rather than identifying TrkA agonists. Based on the results of the re-screen, in combination with the physical–chemical properties of the molecules, a collection of hits was used for the EC50 determinations.” for “each plate.”
Both Toltrazuril and Ponazuril are registered veterinary products prescribed for parasitic infections in animals. […] The cellular response to NGF or BDNF was measured using PathHunter® assays employing β-gal enzyme fragment complementation technology. The activation of Trk-receptors leads to an intracellular interaction between the Trk-receptor and SHC-1 and thereby to the complementation of β-gal, which will render in a functional enzyme. β-gal will hydrolyze a substrate to generate luminescence, which is proportional to the number of activated receptors. […]

[1] = test system: Shaffer collaterals-CA1 pathway, hippocampal slices; experiment: Facilitation of long-term potentiation in rat hippocampal slices; details: 50 ng/mL; n = 9 slices from 7 rats
Procedure: Male Sprague Dawley rats (4–5 weeks old) from Charles River Laboratories, Sulzfeld, Germany, were used in these experiments. Rats were deeply anesthetized using isoflurane and decapitated soon after the disappearance of the corneal reflexes. The brains were removed and placed in ice-cold standard artificial CSF (aCSF) solution (124 mM NaCl, 30 mM NaHCO3, 10 mM glucose, 1.25 mM NaH2PO4, 3.5 mM KCl, 1 mM MgCl2, 2 mM CaCl2). Hippocampal horizontal sections (400 µm thick) were prepared using a Leica VT1200S vibratome (Leica Microsystems, Kista, Sweden). Immediately after slicing, sections were transferred into an interface incubation chamber filled with standard aCSF. The chamber was held at 34 °C during the slicing period and was subsequently allowed to cool down to room temperature. […] The facilitation of long-term potentiation (LTP) was monitored in the Shaffer collaterals (SC)-CA1 pathway in the hippocampus. […] Data were normalized with respect to the mean fEPSP slope recorded during the last 10 min of the baseline period.
It has been well-described that the transient, short-term plasticity of synaptic strength induced by a weak stimulation in hippocampal slices can turn into long-term potentiation (LTP) through the exogenous application of BDNF [71, 72, 73]. […] In the control slices, the recorded potentiation decreased to the baseline level after 60 min. […]

T2 sequence (Q16620 32-822): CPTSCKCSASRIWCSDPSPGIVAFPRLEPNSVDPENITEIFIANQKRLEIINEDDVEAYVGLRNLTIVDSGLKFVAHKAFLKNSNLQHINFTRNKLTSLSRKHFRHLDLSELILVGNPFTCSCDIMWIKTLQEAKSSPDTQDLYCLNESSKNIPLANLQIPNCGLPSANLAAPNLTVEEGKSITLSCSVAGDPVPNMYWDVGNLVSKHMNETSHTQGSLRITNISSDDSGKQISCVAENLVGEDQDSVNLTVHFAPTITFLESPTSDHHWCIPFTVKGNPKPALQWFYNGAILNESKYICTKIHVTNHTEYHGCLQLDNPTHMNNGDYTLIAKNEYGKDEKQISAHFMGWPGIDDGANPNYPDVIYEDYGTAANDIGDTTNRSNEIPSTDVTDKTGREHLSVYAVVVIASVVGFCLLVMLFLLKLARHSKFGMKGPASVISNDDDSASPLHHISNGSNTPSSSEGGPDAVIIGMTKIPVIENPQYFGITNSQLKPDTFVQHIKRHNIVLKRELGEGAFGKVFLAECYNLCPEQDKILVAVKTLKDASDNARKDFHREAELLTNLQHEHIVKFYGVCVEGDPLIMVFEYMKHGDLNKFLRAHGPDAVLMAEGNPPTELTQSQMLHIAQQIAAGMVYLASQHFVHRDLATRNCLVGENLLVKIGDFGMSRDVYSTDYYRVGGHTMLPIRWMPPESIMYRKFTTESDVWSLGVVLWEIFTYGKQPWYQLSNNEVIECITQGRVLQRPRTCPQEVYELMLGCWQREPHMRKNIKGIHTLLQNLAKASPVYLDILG
T1 sequence (P04629 33-796): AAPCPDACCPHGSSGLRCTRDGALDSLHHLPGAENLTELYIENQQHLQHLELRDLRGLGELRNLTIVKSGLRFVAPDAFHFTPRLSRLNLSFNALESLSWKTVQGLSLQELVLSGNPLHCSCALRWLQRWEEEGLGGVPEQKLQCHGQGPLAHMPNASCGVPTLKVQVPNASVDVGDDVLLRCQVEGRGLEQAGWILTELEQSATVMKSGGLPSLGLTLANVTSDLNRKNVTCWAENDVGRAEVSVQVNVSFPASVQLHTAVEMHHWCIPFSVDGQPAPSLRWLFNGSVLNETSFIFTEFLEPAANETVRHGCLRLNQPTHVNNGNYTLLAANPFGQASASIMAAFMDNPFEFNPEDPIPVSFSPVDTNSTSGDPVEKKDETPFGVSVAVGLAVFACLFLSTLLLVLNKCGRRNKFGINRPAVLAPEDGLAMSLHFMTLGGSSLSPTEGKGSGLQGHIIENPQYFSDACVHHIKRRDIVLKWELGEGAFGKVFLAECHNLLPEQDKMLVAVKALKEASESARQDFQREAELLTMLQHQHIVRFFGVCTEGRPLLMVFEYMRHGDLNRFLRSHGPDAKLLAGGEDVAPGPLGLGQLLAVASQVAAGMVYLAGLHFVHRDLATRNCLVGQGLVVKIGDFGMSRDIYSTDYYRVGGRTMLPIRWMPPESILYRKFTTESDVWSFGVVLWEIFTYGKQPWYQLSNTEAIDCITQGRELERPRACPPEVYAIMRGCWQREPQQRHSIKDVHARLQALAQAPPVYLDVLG

CNC(=O)Oc1ccc2c(c1)[C@]1(C)CCN(C)[C@@H]1N2C [physostigmine]
effect of low dose alone on scopolamine-induced memory impairment (C57BL/6J mice): no significant effect

COc1cc2c(cc1OC)C(=O)C(CC1CCN(Cc3ccccc3)CC1)C2 (centres unmarked) [Donepezil]
time with novel object vs familiar object after scopolamine (Wistar rats): spent significantly more time with the novel object

N#CC(c1ccc(Cl)cc1)c1c(Cl)cc(-n2ncc(=O)[nH]c2=O)cc1Cl (centres unmarked) [Diclazuril]
activity in the TrkA assay (TrkA): not active | activity in the TrkB assay (TrkB): not active

B1: BDNF: recombinant human brain-derived neurotrophic factor (protein, UniProt P23560 19-247, looked up)
Neurotrophic factor BDNF …: APMKEANIRGQGGLAYPGVRTHGTLESVNGPKAGSRGLTSLADTFEHVIEELLDEDQKVRPNEENNKDADLYTSRVMLSSQVPLEPPLLFLLEEYKNYLDAANMSMRVRRHSDPARRGELSVCDSISEWVTAADKKTAVDMSGGTVTVLEKVPVSKGQLKQYFYETKCNPMGYTKEGCRGIDKRHWNSQCRTTQSYVRALTMDSKKRIGWRFIRIDTSCVCTLTIKRGR
long-lasting potentiation of evoked synaptic responses (fEPSP slope), fold increase [1]: 1.22 ± 0.04 fold

Reference: paper PMC8391421, “Identification of Novel Positive Allosteric Modulators of Neurotrophin Receptors for the Treatment of Cognitive Dysfunction” (Cells, 2021)
